Some test systems named below: NCI-H226 lung; UACC-257 melanoma; U251 CNS; SN12C renal; HL-60(TB) leukemia; LOX IMVI melanoma; MALME-3M melanoma; IGROV1 ovarian; SF-539 CNS; SF-268 CNS; HT29 colon.
Test in all cases: NCI tumour cell line growth inhibition, 48 h

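Following 48 hours of exposure in 96-well plates, responses at five concentrations were used to interpolate endpoints linearly. The concentration for full growth arrest is given as TGI.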

As to `CC(C)(C)C1CCC2c3c([nH]c4ccccc34)C3C(=O)N(c4ccc(C#N)cc4)C(=O)C3C2C1` (configuration not stated), the TGI was found to be 42.1 µM in the experiment with NCI-H226 lung; 82.9 µM in the experiment with UACC-257 melanoma; 37.1 µM in the experiment with U251 CNS; 21.4 µM with SN12C renal; 15 µM in the experiment with HL-60(TB) leukemia; 34.6 µM with LOX IMVI melanoma. The TGI in the experiment on MALME-3M melanoma is 37.5 µM; with IGROV1 ovarian it was above 100 µM; with SF-539 CNS, 43.2 µM; in the experiment with SF-268 CNS, 29.3 µM; in the experiment with HT29 colon, 20.3 µM.

In the case of `Cn1cnc(N)c(N=O)c1=O`, the TGI in the experiment with NCI-H226 lung, in the experiment with UACC-257 melanoma, in the experiment with U251 CNS, with SN12C renal, with HL-60(TB) leukemia and in the experiment with LOX IMVI melanoma was above 10 µM each time. Besides, the TGI in the experiment with MALME-3M melanoma, with IGROV1 ovarian, in the experiment on SF-539 CNS, in the experiment with SF-268 CNS and with HT29 colon was above 10 µM in each case.

Take `CC1C(NNC(N)=O)Oc2cc3c(cc2C1c1ccccc1O)OCO3` (configuration not stated): the TGI with NCI-H226 lung is above 100 µM; in the experiment on UACC-257 melanoma it was above 100 µM; in the experiment on U251 CNS it was above 100 µM; in the experiment with SN12C renal it was above 100 µM; in the experiment on HL-60(TB) leukemia, 35.4 µM; with LOX IMVI melanoma, above 100 µM. The TGI in the experiment with MALME-3M melanoma is 97.2 µM; in the experiment with IGROV1 ovarian it was 86.4 µM; in the experiment with SF-539 CNS it was 74 µM; with SF-268 CNS, above 100 µM; with HT29 colon, above 100 µM.

Consider `CC1CC/C(=C\c2ccc(F)cc2)C2=C1C(c1ccc(F)cc1)N1C(=O)CSC1=N2` (configuration not stated), for which the TGI with NCI-H226 lung, in the experiment with UACC-257 melanoma, in the experiment with U251 CNS, in the experiment on SN12C renal, with HL-60(TB) leukemia and in the experiment with LOX IMVI melanoma was above 100 µM throughout. Besides, the TGI in the experiment with MALME-3M melanoma, with IGROV1 ovarian, in the experiment on SF-539 CNS, in the experiment on SF-268 CNS and with HT29 colon was above 100 µM throughout.

Regarding `CC(=O)n1cc(C2CC23N=C(c2ccccc2)OC3=O)c2ccccc21` (configuration not stated), the TGI was 44.5 µM in the experiment with NCI-H226 lung; 32.8 µM with UACC-257 melanoma; 36.8 µM in the experiment with U251 CNS; 31.9 µM in the experiment with SN12C renal; 6.12 µM with HL-60(TB) leukemia; 35.8 µM in the experiment with LOX IMVI melanoma. In addition, the TGI with MALME-3M melanoma stood at 58.2 µM; in the experiment with IGROV1 ovarian, 38.3 µM; with SF-539 CNS, 41.2 µM; in the experiment with SF-268 CNS, 46.3 µM; in the experiment on HT29 colon, 39.9 µM.

`COc1ccc(C#Cn2nnc3ccccc32)cc1`: the TGI in the experiment on NCI-H226 lung was above 100 µM; with UACC-257 melanoma, above 100 µM; with U251 CNS it was above 100 µM; in the experiment on SN12C renal it was above 100 µM; in the experiment with HL-60(TB) leukemia, 60.6 µM; with LOX IMVI melanoma, above 100 µM. Besides, the TGI in the experiment on MALME-3M melanoma, with IGROV1 ovarian, with SF-539 CNS, in the experiment with SF-268 CNS and with HT29 colon was above 100 µM each time.

On to `COC(=O)C1=C(OC(=O)/C(=C/c2ccccc2)c2ccc(OC)cc2)C(C(=O)OC)[C@@]2(O)[C@@H](C(=O)OC)[C@H](C)C[C@@H]1[C@@H]2C(=O)OC` (some centres not stated), for which the TGI in the experiment on NCI-H226 lung, with UACC-257 melanoma, in the experiment on U251 CNS, with SN12C renal, with HL-60(TB) leukemia and in the experiment with LOX IMVI melanoma was above 100 µM throughout. In addition, the TGI in the experiment with MALME-3M melanoma, in the experiment with IGROV1 ovarian, in the experiment with SF-539 CNS, with SF-268 CNS and with HT29 colon was above 100 µM throughout.

Turning to `CC1CC[C@@]2(OC1)O[C@H]1[C@H](O)[C@H]3[C@@H]4CC[C@H]5C[C@@H](OC6OC(CO)C(OC7OC(CO)C(O)C(OC8OCC(O)C(O)C8O)C7OC7OC(CO)C(O)C(O)C7OC7OC(CO)C(O)C(O)C7O)C(O)C6O)[C@H](O)C[C@]5(C)[C@H]4CC[C@]3(C)[C@H]1[C@@H]2C` (some centres not stated), the TGI in the experiment with NCI-H226 lung is above 10 µM; in the experiment with UACC-257 melanoma, above 10 µM; in the experiment with U251 CNS it was above 10 µM; with SN12C renal, above 10 µM; in the experiment on HL-60(TB) leukemia, 3.08 µM; in the experiment on LOX IMVI melanoma, above 10 µM. For the same compound, the TGI with MALME-3M melanoma, with IGROV1 ovarian, in the experiment with SF-539 CNS, with SF-268 CNS and in the experiment with HT29 colon was above 10 µM throughout.

In the case of `Cc1c(C(=O)c2ccc(N)c3ccccc23)c2ccccc2n1CCN1CCOCC1`, the TGI in the experiment with NCI-H226 lung is above 100 µM; with UACC-257 melanoma, 58.5 µM; with U251 CNS, above 95.6 µM; with SN12C renal it was above 94.1 µM; in the experiment on HL-60(TB) leukemia, 58.1 µM; in the experiment on LOX IMVI melanoma, 59 µM. In addition, the TGI is 61.8 µM with MALME-3M melanoma; above 89.6 µM in the experiment on IGROV1 ovarian; 50.8 µM in the experiment on SF-539 CNS; above 88.5 µM in the experiment with SF-268 CNS; 72.5 µM in the experiment with HT29 colon.

As to `COc1cc2cc(C(=O)N3CC(COS(C)(=O)=O)c4ccc(NC(=O)OCc5ccccc5)cc43)[nH]c2c(OC)c1OC` (configuration not stated), the TGI in the experiment with NCI-H226 lung, in the experiment on UACC-257 melanoma, in the experiment on U251 CNS, in the experiment on SN12C renal, in the experiment with HL-60(TB) leukemia and in the experiment with LOX IMVI melanoma was above 100 µM in each case. Besides, the TGI in the experiment on MALME-3M melanoma, with IGROV1 ovarian, in the experiment on SF-539 CNS, in the experiment with SF-268 CNS and with HT29 colon was above 100 µM each time.

With `O=C(Nc1sccc1S(=O)(=O)c1ccc(Cl)cc1)c1ccc(F)cc1F`, the TGI with NCI-H226 lung is above 100 µM; in the experiment on UACC-257 melanoma, above 100 µM; in the experiment with U251 CNS, 45 µM; with SN12C renal, above 100 µM; with HL-60(TB) leukemia, above 100 µM; in the experiment with LOX IMVI melanoma it was above 100 µM. For the same compound, the TGI with MALME-3M melanoma is 96.4 µM; in the experiment on IGROV1 ovarian it was above 100 µM; in the experiment on SF-539 CNS, 30.5 µM; with SF-268 CNS, 42.7 µM; with HT29 colon, above 100 µM.

Turning to `O=C(c1ccccc1)c1ccc2nc(-c3c(Cl)c(Cl)c(Cl)c(Cl)c3-c3nnc(-c4ccccc4)o3)[nH]c2c1`, the TGI in the experiment on NCI-H226 lung was 97.7 µM; with UACC-257 melanoma, above 100 µM; in the experiment on U251 CNS, above 100 µM; with SN12C renal, 81.7 µM; in the experiment with HL-60(TB) leukemia it was above 100 µM; in the experiment on LOX IMVI melanoma, above 100 µM. Moreover, the TGI in the experiment on MALME-3M melanoma, in the experiment with IGROV1 ovarian, in the experiment with SF-539 CNS, with SF-268 CNS and in the experiment on HT29 colon was above 100 µM each time.
